{"source": "patent US20170231949A1", "about": "“CELL REPAIR AGENT AND DISINFECTION SYSTEM” (priority 2014, published 2017)", "assay_type_in_all_cases": "cell-based", "key": {"[1]": {"test_system": "mouse fibroblasts in growth phase", "assay": "Tests 4, 6, 7, 8: post-treatment after acidic electrolyzed water, degree of cell proliferation by MTT method", "settings": "24 hours culture", "method": "(§1) Similarly to Test 1, mouse fibroblasts in growth phase were treated with four-fold-diluted acidic electrolyzed water and undiluted acidic electrolyzed water for 30 seconds. After washing with phosphate-buffered saline, 100 μl of 140 mM DMSO or 1 mg/ml proanthocyanidin prepared with serum-free DMEM was added to each well, and then cells were cultured for 30 minutes under conditions of 37° C. and 5% CO2. After washing with PBS, fresh medium was added, and then the degree of cell proliferation after 24 hours of culture under conditions of 37° C. and 5% CO2 was determined by the MTT method. In addition, a significant difference between groups was tested by Tukey-Krammer's multiple comparison test (multiple comparative analysis).\nas §1, with “4,” for “1,”, “PBS,” for “phosphate-buffered saline,”, “of” for “of 140 mM DMSO or”, “(+)-catechin (Tokyo Chemical Industry Co., Ltd.)” for “proanthocyanidin”, “followed by” for “and then cells were cultured for”, “minutes of culture” for “minutes”\nSimilarly to Test 4, mouse fibroblasts in growth phase were treated with undiluted acidic electrolyzed water for 30 seconds. After washing with PBS, 100 μl of 1 mg/ml chlorogenic acid (Sigma-Aldrich), caffeic acid (Tokyo Chemical Industry Co., Ltd.) or gallic acid (Tokyo Chemical Industry Co., Ltd.) prepared with serum-free DMEM was added to each well, followed by 5 or 30 minutes of culture under conditions of 37° C. and 5% CO2. After washing with PBS, fresh medium was added, and then the degree of cell proliferation after 24 hours of culture under conditions of 37° C., 5% CO2 was determined by the MTT method. In addition, a significant difference between groups was tested by Tukey-Krammer's multiple comparison test (multiple comparative analysis).\nSimilarly to Test 4, mouse fibroblasts in growth phase were treated with undiluted acidic electrolyzed water for 30 seconds. After washing with PBS, 100 μl of 1 mg/ml proanthocyanidin prepared with serum-free DMEM was added to each well, and the resultants were each left to sit at room temperature for 1 minute and 5 minutes. After washing with PBS, fresh medium was added, and then the degree of cell proliferation after 24 hours of culture under conditions of 37° C. and 5% CO2 was determined by the MTT method. In addition, a significant difference between groups was tested by Tukey-Krammer's multiple comparison test (multiple comparative analysis)."}, "[2]": {"test_system": "mouse fibroblasts in stationary phase", "assay": "Test 3: impact of DMSO and proanthocyanidin on intracellular ROS levels increased by acidic electrolyzed water", "settings": "four-fold-diluted or undiluted AEW 30 seconds, then 140 mM DMSO or 1 mg/ml proanthocyanidin, 1 hour", "method": "Specifically, 100 μl of 1 mM 2',7'-dichlorodihydrofluorescin Diacetate (DCFH-DA) dissolved in serum-free medium (DMEM only) was added to each well, and then cells were cultured for 1 hour under conditions of 37° C. and 5% CO2. After culture, washing with phosphate-buffered saline was performed, 100 μl of 2× Cell Lysis Buffer (Cell Biolabs) and 100 μl of serum-free DMEM were added, and then the resultants were left to stand for 5 minutes. 150 μl of the resultants was transferred from each well to a black 96-well microplate, fluorescence intensities were measured at an excitation wavelength of 450 nm and a fluorescence wavelength of 530 nm using a microplate reader (“FilterMaxTM F5 Multi-Mode Microplate Reader”, Molecular Devices). A standard curve was prepared using 2',7'-dichlorodihydrofluorescein (DCF), and intracellular ROS levels were represented by DCF equivalents (nM). In addition, a significant difference to the average value of each control group (control) was tested by Dunnett's multiple comparison test (multiple comparative analysis). Similarly to Test 2, mouse fibroblasts in stationary phase were treated with four-fold-diluted acidic electrolyzed water and undiluted acidic electrolyzed water for 30 seconds. […] After culture, similarly to Test 2, intracellular ROS levels were determined."}, "[3]": {"test_system": "human gingival fibroblasts in growth phase", "assay": "Test 5: post-treatment after acidic electrolyzed water, degree of cell proliferation by MTT method", "settings": "four-fold-diluted or undiluted AEW 30 seconds, then 140 mM DMSO or 1 mg/ml proanthocyanidin for 30 minutes; 24 hours culture", "method": "A test similar to Test 4 was conducted for human gingival fibroblasts in growth phase. First, human gingival fibroblasts (purchased from Primary Cell Co., Ltd.) were cultured in a 25 cm^2 flask under conditions of 37° C. and 5% CO2, and then a cell suspension was prepared similarly to the case of mouse fibroblasts in medium to a cell density of 2×10^4 cells/ml. 100 μl each of the cell suspension was seeded to each well of a 96-well microplate."}, "[4]": {"settings": "undiluted AEW 30 seconds, then 1 mg/ml test substance for 5 or 30 minutes"}}}
{"smiles": "O=C(/C=C/c1ccc(O)c(O)c1)O[C@@H]1C[C@](O)(C(=O)O)C[C@@H](O)[C@H]1O", "note": "[chlorogenic acid]", "values": [{"measurement": "cell proliferation state (degree of cell proliferation, MTT)", "setting": "[1]; [4]", "result": "significantly improved"}]}
{"smiles": "O=C(O)/C=C/c1ccc(O)c(O)c1", "note": "[caffeic acid]", "values": [{"measurement": "cell proliferation state (degree of cell proliferation, MTT)", "setting": "[1]; [4]", "result": "significantly improved"}]}
{"smiles": "O=C(O)c1cc(O)c(O)c(O)c1", "note": "[gallic acid]", "values": [{"measurement": "cell proliferation state (degree of cell proliferation, MTT)", "setting": "[1]; [4]", "result": "significantly improved"}]}
{"smiles": "Oc1cc(O)c2c(c1)O[C@H](c1ccc(O)c(O)c1)[C@@H](O)C2", "note": "[(+)-catechin]", "values": [{"measurement": "cell proliferation state (degree of cell proliferation, MTT)", "setting": "[1]; four-fold-diluted and undiluted AEW 30 seconds, then 1 mg/ml (+)-catechin for 30 minutes", "result": "significantly improved"}]}
{"smiles": "C[S+](C)[O-]", "note": "[DMSO, dimethyl sulfoxide]", "values": [{"measurement": "ROS level increased by acidic electrolyzed water", "setting": "[2]", "result": "significantly decreased"}, {"measurement": "cell proliferation state (degree of cell proliferation, MTT)", "setting": "[1]; four-fold-diluted and undiluted AEW 30 seconds, then 140 mM DMSO or 1 mg/ml proanthocyanidin for 30 minutes", "result": "no change"}, {"measurement": "cell proliferation state (degree of cell proliferation, MTT)", "setting": "[3]", "result": "no change"}]}
